In series [1] the test system is human breast cancer cell line (MDA-MB-468). Description: Growth inhibition of MDA-MB-468 cells, sulforhodamine B method. Type of series: cell-based. The settings on record: 120 h, 5 days with test compound. The procedure:
(§1) Growth inhibition of a human breast cancer cell line (MDA-MB-468) was determined by the sulforhodamine B method based on the method of Skehan P. et al. (J Natl Cancer Inst. 1990 Jul. 4; 82(13): 1107-12). In the study, MDA-MB-468 cells were seeded on DMEM medium containing 10% fetal bovine serum in a 96-well microplate. After 24-h incubation at 37° C. in the presence of 5% carbon dioxide, the test compound was added and the cells were incubated for another 5 days. After incubation, a trichloroacetic acid solution was added to yield the final concentration of 10% and the cells were left to stand at 4° C. for 1 hour to fix. Then, the cells were washed with water to remove the medium and trichloroacetic acid and dried in the air. The dried cells were stored at 4° C. until they were stained with sulforhodamine B. To each well, 1% acetic acid solution containing 0.4% sulforhodamine B was added and left to stand for 20 to 30 minutes at room temperature. After discarding the supernatant, each well was washed with 1% acetic acid solution, and 10 mM Tris([…]) solution was added while stirring to elute the dye taken into the cells. Then, the optical density was determined at the measurement wavelength of 492 nm and the reference wavelength of 690 nm, and the difference was calculated. The cell growth activity in each well was defined as the value determined by subtracting the OD in the control well not containing cells (the difference in absorbance between 492 nm and 690 nm) from that in the test well.
(§2) The 50% inhibitory concentration (IC50 (nM)) of the test compound was determined by comparing the cell growth activity in the well containing the test compound with that of the control not containing the test compound.
In general terms: In SRB staining, fixed cells bind dye roughly in proportion to their protein.

Series [2] has as its system human hepatic cancer cell line (HuH-7). Put plainly: Growth inhibition of HuH-7 cells, sulforhodamine B method. Format: cell-based. The settings on record: 5 days with test compound. The procedure:
as §1, §2
The growth inhibition on a human hepatic cancer cell line (HuH-7) was also determined by the above method.

We go through 19 compounds from patent US8722663B2, “Di-substituted pyridine derivatives as anticancers” (Otsuka Pharmaceutical Co., Ltd., priority 2010, dated 2014).

Structures can show the parent of a compound that is named as a salt.

As usually defined, the IC50 is the concentration needed to halve the response being measured. Low values mean greater potency, high ones weaker potency. In general, melting point refers to the temperature, or range, at which the solid turns liquid. As for `Br.C/C(C(=O)N1CCN(Cc2ccc(CCOc3ccc(C)cc3)cc2)CC1)=C(/C)c1cc(C)c(Oc2ccc(OCc3ccc(C)cc3)cn2)c(Cl)c1` [Example 706, (E)-3-[3-Chloro-5-methyl-4-({5-[(4-methylbenzyl)oxy]pyridin-2-yl}oxy)phenyl]-2-methyl-1-(4-{4-[2-(4-methylphenoxy)ethyl]benzyl}piperazin-1-yl)but-2-en-1-one hydrobromide], the melting point lay in the range of 205.5 to 206.5 °C. Also, the IC50 in series [1] is less than 10 nM. Consider `Cc1ccc(OC/C=C/c2ccc(CN3CCN(C(=O)/C=C/c4cc(C)c(Oc5ccc(OCc6ccc(F)cc6)cn5)c(C)c4)CC3)cc2C)cc1` [Example 407, (2E)-3-[4-({5-[(4-fluorobenzyl)oxy]pyridin-2-yl}oxy)-3,5-dimethylphenyl]-1-(4-{3-methyl-4-[(1E)-3-(4-methylphenoxy)prop-1-en-1-yl]benzyl}piperazin-1-yl)prop-2-en-1-one], for which the IC50 in series [2] (Homo sapiens, 120 h) was less than 10 nM.

As to `COc1ccc(OCCc2ccc(CN3CCN(C(=O)/C=C/c4cc(C)c(Oc5ccc(OCc6ccc(C)c(F)c6)cn5)c(Cl)c4)CC3)cc2)cc1` [Example 428, (E)-3-[3-Chloro-4-({5-[3-fluoro-4-methylbenzyl)oxy]pyridin-2-yl}oxy)-5-methylphenyl]-1-(4-{4-[2-(4-methoxyphenoxy)ethyl]benzyl}piperazin-1-yl)prop-2-en-1-one hydrochloride], the IC50 in series [2] was less than 10 nM. Compound `C/C(=C\c1cc(C)c(Oc2ccc(OCc3ccc(C)cc3)cn2)c(Cl)c1)C(=O)N1CCN(Cc2ccc(CCOc3ccc(C)cc3)cc2)CC1.Cl` [Example 411, (E)-3-[3-Chloro-5-methyl-4-({5-[(4-methylbenzyl)oxy]pyridin-2-yl}oxy)phenyl]-2-methyl-1-(4-{4-[2-(4-methylphenoxy)ethyl]benzyl}piperazin-1-yl)prop-2-en-1-one hydrochloride] yielded a melting point of 134.7 to 136.4 °C. Further, the IC50 in series [1] is less than 10 nM. Take `Cc1cc(/C=C/C(=O)N2CCN(Cc3ccc(CCOc4ccc(F)cc4)cc3)CC2)cc(Cl)c1Oc1ccc(OCc2cccc(Cl)c2F)cn1.Cl` [Example 485, (E)-3-[3-Chloro-4-({5-[(3-chloro-2-fluorobenzyl)oxy]pyridin-2-yl}oxy)-5-methylphenyl]-1-(4-{4-[2-(4-fluorophenoxy)ethyl]benzyl}piperazin-1-yl)prop-2-en-1-one hydrochloride]: the melting point was in the range of 228.9 to 229.4 °C. In series [1], the IC50 is less than 10 nM.

The compound `Cc1ccc(CN2CCN(C(=O)/C=C/c3cc(C)c(Oc4ccc(OCc5ccc(Cl)cc5)cn4)c(Cl)c3)CC2)cc1.Cl` [Example 781, (E)-3-[3-Chloro-4-({5-[(4-chlorobenzyl)oxy]pyridin-2-yl}oxy)-5-methylphenyl]-1-[4-(4-methylbenzyl)piperazin-1-yl]prop-2-en-1-one hydrochloride] returned a melting point of 223.1 to 224 °C. Further, in series [1], the IC50 was less than 10 nM. `Cc1cc(/C=C/C(=O)N2CCN(Cc3ccc(CCOc4ccc(Cl)cc4)c(F)c3)CC2)cc(C)c1Oc1ccc(OCc2ccc(C#N)cc2)cn1.Cl` [Example 614, 4-{[(6-{4-[(E)-3-(4-{4-[2-(4-Chlorophenoxy)ethyl]-3-fluorobenzyl}piperazin-1-yl)-3-oxoprop-1-en-1-yl]-2,6-dimethylphenoxy}pyridin-3-yl)oxy]methyl}benzonitrile hydrochloride] registered a melting point of 240.5 to 243.5 °C. In series [1], the IC50 was less than 10 nM. Compound `Cc1ccc(CN2CCN(C(=O)/C=C/c3cc(C)c(Oc4ccc(OCc5ccc(C(C)C)cc5)cn4)c(Cl)c3)CC2)cc1` [Example 358, (E)-3-{3-Chloro-5-methyl-4-[(5-{[4-(propan-2-yl)benzyl]oxy}pyridin-2-yl)oxy]phenyl}-1-[4-(4-methylbenzyl)piperazin-1-yl]prop-2-en-1-one] gave an IC50 in series [2] (Homo sapiens, 120 h) of less than 10 nM.

In the case of `Cc1cc(/C=C/C(=O)N2CCN(Cc3ccc(COc4ccc(OC(C)C)cc4)c(F)c3)CC2)cc(Cl)c1Oc1ccc(OCc2ccc(C#N)cc2)cn1.Cl` [Example 640, 4-({[6-(2-Chloro-4-{(E)-3-[4-(3-fluoro-4-{[4-(propan-2-yloxy)phenoxy]methyl}benzyl)-piperazin-1-yl]-3-oxoprop-1-en-1-yl}-6-methylphenoxy)pyridin-3-yl]oxy}methyl)benzonitrile hydrochloride], the melting point is 141.8 to 141.9 °C. For the same compound, in series [1], the concentration for half-maximal inhibition (IC50) is less than 10 nM. Consider `Cc1cc(/C=C/C(=O)N2CCN(Cc3ccc(Cl)cc3)CC2)cc(Cl)c1Oc1ccc(OCCc2ccc(Cl)cc2)cn1.Cl` [Example 765, (E)-1-[4-(4-Chlorobenzyl)piperazin-1-yl]-3-[3-chloro-4-({5-[2-(4-chlorophenyl)ethoxy]pyridin-2-yl}oxy)-5-methylphenyl]prop-2-en-1-one hydrochloride], for which the melting point lay within 220 to 220.9 °C. The compound further showed an IC50 in series [1] of less than 10 nM.

In series [2] (Homo sapiens, 120 h), `COc1ccc(CCOc2ccc(CN3CCN(C(=O)/C=C/c4cc(C)c(Oc5ccc(OCc6ccc(C(F)(F)F)cc6)cn5)c(Cl)c4)CC3)cc2)cc1` [Example 688, (E)-3-{3-Chloro-5-methyl-4-[(5-{[4-(trifluoromethyl)benzyl]oxy}pyridin-2-yl)oxy]phenyl}-1-(4-{4-[2-(4-methoxyphenyl)ethoxy]benzyl}piperazin-1-yl)prop-2-en-1-one hydrochloride] registered an IC50 of less than 10 nM. For `Cc1cc(/C=C/C(=O)N2CCN(Cc3ccc(COc4ccc(F)cc4)c(F)c3)CC2)cc(Cl)c1Oc1ccc(OCc2ccc(C#N)cc2)cn1.Cl` [Example 641, 4-{[(6-{2-Chloro-4-[(E)-3-(4-{3-fluoro-4-[(4-fluorophenoxy)methyl]benzyl}piperazin-1-yl)-3-oxoprop-1-en-1-yl]-6-methylphenoxy}pyridin-3-yl)oxy]methyl}benzonitrile hydrochloride], the melting point was in the range of 218 to 220.5 °C. Moreover, in series [1], the IC50 is less than 10 nM.

`Cc1cc(/C=C/C(=O)N2CCN(Cc3ccc(CCOCc4ccc(Cl)cc4)cc3)CC2)cc(C)c1Oc1ccc(OCc2ccncc2)cn1` [Example 384, (E)-1-[4-(4-{2-[(4-chlorobenzyl)oxy]ethyl}benzyl)piperazin-1-yl]-3-(3,5-dimethyl-4-{[5-(pyridin-4-ylmethoxy)pyridin-2-yl]oxy}phenyl)prop-2-en-1-one] gave an IC50 in series [2] (Homo sapiens, 120 h) of less than 10 nM. Compound `CC(C)c1ccc(OCCc2ccc(CN3CCN(C(=O)c4ccc5cc(Oc6ccc(OCc7cccc(F)c7F)cn6)ccc5c4)CC3)cc2)cc1` [Example 542, [6-({5-[(2,3-Difluorobenzyl)oxy]pyridin-2-yl}oxy)naphthalen-2-yl][4-(4-{2-[4-(propan-2-yl)phenoxy]ethyl}benzyl)piperazin-1-yl]methanone hydrochloride] showed an IC50 in series [2] (Homo sapiens, 120 h) of less than 10 nM. On to `Br.C/C(=C\C(=O)N1CCN(Cc2ccc(CCOc3ccc(C)cc3)cc2)CC1)c1cc(C)c(Oc2ccc(OCc3ccc(C)cc3)cn2)c(Cl)c1` [Example 708, (E)-3-[3-Chloro-5-methyl-4-({5-[(4-methylbenzyl)oxy]pyridin-2-yl}oxy)phenyl]-1-(4-{4-[2-(4-methylphenoxy)ethyl]benzyl}piperazin-1-yl)but-2-en-1-one hydrobromide], for which the melting point lay in the range of 156.5 to 158.2 °C. The IC50 in series [1] is less than 10 nM. `Cc1ccc(CN2CCN(C(=O)/C=C/c3cc(C)c(Oc4ccc(OCc5ccc(F)cc5)cn4)c(Cl)c3)CC2)cc1.Cl` [Example 779, (E)-3-[3-Chloro-4-({5-[(4-fluorobenzyl)oxy]pyridin-2-yl}oxy)-5-methylphenyl]-1-[4-(4-methylbenzyl)piperazin-1-yl]prop-2-en-1-one hydrochloride]: the melting point was in the range of 223.9 to 224.5 °C. Further, the 50% inhibitory concentration (IC50) in series [1] was less than 10 nM. Regarding `Cc1cc(/C=C/C(=O)N2CCN(Cc3ccc(CCOc4ccc(C(F)(F)F)cc4)cc3F)CC2)cc(C)c1Oc1ccc(OCc2ccc(C#N)cc2)cn1` [Example 616, 4-({[6-(4-{(E)-3-[4-(2-Fluoro-4-{2-[4-(trifluoromethyl)phenoxy]ethyl}benzyl)piperazin-1-yl]-3-oxoprop-1-en-1-yl}-2,6-dimethylphenoxy)pyridin-3-yl]oxy}methyl)benzonitrile hydrochloride], the IC50 in series [1] was less than 10 nM. In the case of `Cc1cc(/C=C/C(=O)N2CCN(Cc3ccc(CCCOc4ccc(F)cc4)cc3)CC2)cc(Cl)c1Oc1ccc(OCc2ccc(C#N)cc2)cn1.Cl` [Example 618, 4-{[(6-{2-Chloro-4-[(E)-3-(4-{4-[3-(4-fluorophenoxy)propyl]benzyl}piperazin-1-yl)-3-oxoprop-1-en-1-yl]-6-methylphenoxy}pyridin-3-yl)oxy]methyl}benzonitrile hydrochloride], the melting point lay within 166.2 to 166.7 °C. The compound further displayed an IC50 in series [1] of less than 10 nM. In the case of `C/C(=C\C(=O)N1CCN(Cc2ccc(CCOc3ccc(F)cc3)cc2)CC1)c1cc(C)c(Oc2ccc(OCc3ccc(C)cc3)cn2)c(Cl)c1.O=C(O)C(=O)O` [Example 746, (E)-3-[3-Chloro-5-methyl-4-({5-[(4-methylbenzyl)oxy]pyridin-2-yl}oxy)phenyl]-1-(4-{4-[2-(4-fluorophenoxy)ethyl]benzyl}piperazin-1-yl)but-2-en-1-one ethanedioate], the melting point was 211.3 to 211.7 °C. The same compound registered an IC50 in series [1] of less than 10 nM.
